From patent US20260297109A1, “COMPOUNDS AS SUMO ACTIVATING ENZYME INHIBITORS” (WIGEN BIOMEDICINE TECHNOLOGY (SHANGHAI) CO., LTD., priority 2022, published 2026) come the findings set out here.

The target in the experiment is T1, SAE (Homo sapiens, UniProt Q9UBT2).
T1 construct: endogenous in cells; host or cells: HCT116
T1 sequence (Q9UBT2 1-640): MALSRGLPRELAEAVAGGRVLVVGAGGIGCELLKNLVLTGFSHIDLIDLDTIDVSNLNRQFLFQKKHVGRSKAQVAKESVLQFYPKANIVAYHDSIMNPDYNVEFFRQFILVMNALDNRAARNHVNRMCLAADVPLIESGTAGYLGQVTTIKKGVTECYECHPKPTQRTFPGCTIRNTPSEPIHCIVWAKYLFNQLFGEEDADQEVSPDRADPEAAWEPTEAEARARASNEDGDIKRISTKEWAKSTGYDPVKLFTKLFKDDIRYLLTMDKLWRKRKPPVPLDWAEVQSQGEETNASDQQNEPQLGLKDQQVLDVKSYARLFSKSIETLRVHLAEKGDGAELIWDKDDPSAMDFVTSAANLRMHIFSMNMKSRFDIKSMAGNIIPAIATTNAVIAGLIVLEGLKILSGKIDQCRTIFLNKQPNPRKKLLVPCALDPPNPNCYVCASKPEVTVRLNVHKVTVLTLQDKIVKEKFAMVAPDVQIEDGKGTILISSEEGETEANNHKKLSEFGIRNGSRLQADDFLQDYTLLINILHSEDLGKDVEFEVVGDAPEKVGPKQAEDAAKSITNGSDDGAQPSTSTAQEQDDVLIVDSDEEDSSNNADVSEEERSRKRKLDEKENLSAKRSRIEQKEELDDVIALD
T1 sequence (Q9UBE0 1-346): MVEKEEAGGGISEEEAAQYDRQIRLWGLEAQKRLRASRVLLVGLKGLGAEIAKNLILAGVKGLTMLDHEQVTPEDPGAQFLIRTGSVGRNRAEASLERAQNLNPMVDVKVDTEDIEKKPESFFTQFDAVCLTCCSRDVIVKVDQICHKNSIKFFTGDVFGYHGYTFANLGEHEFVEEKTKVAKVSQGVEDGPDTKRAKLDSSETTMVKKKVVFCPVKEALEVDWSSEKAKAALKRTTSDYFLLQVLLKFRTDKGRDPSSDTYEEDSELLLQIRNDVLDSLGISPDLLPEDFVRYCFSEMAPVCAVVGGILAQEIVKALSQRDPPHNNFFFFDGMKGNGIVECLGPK
Kind of experiment: SUMO IF: in vitro inhibitory activity assay against SAE in HCT116 cells (SUMO-2/3 immunofluorescence). Format: cell-based. The conditions noted are these: 6 h at 37° C. The procedure: Biological Example 1. In Vitro Inhibitory Activity Assay of Compounds of the Present Disclosure Against SAE
HCT116 cells were seeded into a 96-well black transparent bottom plate at about 20000/well with 90 μL per well. The cells were incubated at 37° C. overnight for 24 h. The test compounds were 10-fold diluted to give a final concentration, and 10 μL of the diluted compounds was added to each well of the cell culture plate. The mixture was incubated at 37° C. for 6 h. The cells were then washed gently, the culture medium was discarded, and the cells were washed once with 200 μL of 0.1% PBST. 50 μL of 4% PFA was added to each well, and the cells were immobilized at room temperature for 20 min, and then washed with PBS 2-3 times. 50 μL of 0.2% Triton X-100 was added to each well, and the cells were left to stand at room temperature for 15 min and washed with 0.1% PBST 3 times. 100 μL of 3% BSA (0.6 g BSA+20 mL PBS) was added to each well, and the mixture was blocked at 37° C. for 30 min. After the blocking was completed, the liquid was removed and a primary antibody (SUMO-2/3 (18H8) Rabbit mAb, 1:400 dilution) was prepared with 1% BSA. 30 μL of the diluted primary antibody was added to each well, and the mixture was incubated at 4° C. overnight. The cells were washed 3 times with 200 μL of 0.1% PBST. A FITC secondary antibody (Fluorescein (FITC)-conjugated Affinipure Goat Anti-Rabbit IgG (H+L), 1:300 dilution) was further prepared with 1% BSA, and 40 μL of the diluted secondary antibody was added to each well. The mixture was incubated at room temperature in the dark for 2 h, and then the cells were washed 4 times with 0.1% PBST. The fluorescence signal of the sample was detected and compared to the DMSO group, and the inhibition rate and IC50 were calculated.

Some results are limits rather than exact numbers.

One may read the IC50 as the concentration at which inhibition is half-maximal. Consider `NS(=O)(=O)OC[C@H]1[C@H](F)[C@@H](Nc2ncncc2C(=O)c2cc3c(s2)CCCC32NCC(=O)c3ccc(Cl)cc32)C[C@@H]1O` (some centres unmarked) [Compound 125], for which the IC50 (class symbols) fell in the range of 50 to 200 nM.
`NS(=O)(=O)OC[C@H]1[C@H](F)[C@@H](Nc2ncncc2C(=O)c2cc3c(s2)CCCC32OCCc3ccc(Cl)cc32)C[C@@H]1O` (some centres unmarked) [Compound 126] showed an IC50 (class symbols) of at most 50 nM.
The same measure, in the same setting: in the case of `NS(=O)(=O)OC[C@H]1[C@H](F)[C@@H](Nc2ncncc2C(=O)c2cc3c(s2)CCC32NCCc3ccccc32)C[C@@H]1O` (some centres unmarked) [Compound 127] it was over 200 nM.
For `NS(=O)(=O)OC[C@H]1[C@H](F)[C@@H](Nc2ncncc2C(=O)c2cc3c(s2)CC[C@@]32NCCc3ccccc32)C[C@@H]1O` [Compound 128], the IC50 (numeric values) is over 1000 nM.
Under “numeric values”, `NS(=O)(=O)OC[C@H]1[C@H](F)[C@@H](Nc2ncncc2C(=O)c2cc3c(s2)CC[C@]32NCCc3ccccc32)C[C@@H]1O` [Compound 129] yielded an IC50 of 121 nM.
As for `NS(=O)(=O)OC[C@H]1[C@H](F)[C@@H](Nc2ncncc2C(=O)c2cc3c(s2)CCC32NCCc3ccc(Cl)cc32)C[C@@H]1O` (some centres unmarked) [Compound 130], the IC50 (class symbols) was 50 to 200 nM.
With `NS(=O)(=O)OC[C@H]1[C@H](F)[C@@H](Nc2ncncc2C(=O)c2cc3c(s2)CC[C@@]32NCCc3ccc(Cl)cc32)C[C@@H]1O` [Compound 131], the IC50 (numeric values) was over 1000 nM.
Under “class symbols”, `NS(=O)(=O)OC[C@H]1[C@H](F)[C@@H](Nc2ncncc2C(=O)c2cc3c(s2)CCC32NCCc3ccc(F)cc32)C[C@@H]1O` (some centres unmarked) [Compound 133] showed an IC50 of 50 to 200 nM.
The compound `NS(=O)(=O)OC[C@H]1[C@H](F)[C@@H](Nc2ncncc2C(=O)c2cc3c(s2)CC[C@@]32NCCc3ccc(F)cc32)C[C@@H]1O` [Compound 134] showed an IC50 (numeric values) of over 1000 nM.
The same measure, in the same setting: with `NS(=O)(=O)OC[C@H]1[C@H](F)[C@@H](Nc2ncncc2C(=O)c2cc3c(s2)CC[C@]32NCCc3ccc(F)cc32)C[C@@H]1O` [Compound 135] the figure was 48.9 nM.
As for `N#Cc1ccc2c(c1)C1(CCc3sc(C(=O)c4cncnc4N[C@H]4C[C@H](O)[C@@H](COS(N)(=O)=O)[C@@H]4F)cc31)NCC2` (some centres unmarked) [Compound 136], the IC50 (class symbols) is 50 to 200 nM.
In turn, `N#Cc1ccc2c(c1)[C@]1(CCc3sc(C(=O)c4cncnc4N[C@H]4C[C@H](O)[C@@H](COS(N)(=O)=O)[C@@H]4F)cc31)NCC2` [Compound 137] registered an IC50 (class symbols) of over 200 nM.
Still for that read-out and setting: with `N#Cc1ccc2c(c1)[C@@]1(CCc3sc(C(=O)c4cncnc4N[C@H]4C[C@H](O)[C@@H](COS(N)(=O)=O)[C@@H]4F)cc31)NCC2` [Compound 138] the figure was 50 to 200 nM; with `NS(=O)(=O)OC[C@H]1[C@H](F)[C@@H](Nc2ncncc2C(=O)c2cc3c(s2)OCC32NCCc3ccccc32)C[C@@H]1O` (some centres unmarked) [Compound 139], over 200 nM; with `NS(=O)(=O)OC[C@H]1[C@H](F)[C@@H](Nc2ncncc2C(=O)c2cc3c(s2)OC[C@@]32NCCc3ccccc32)C[C@@H]1O` [Compound 140], over 200 nM.
Still for that read-out and setting: with `NS(=O)(=O)OC[C@H]1[C@H](F)[C@@H](Nc2ncncc2C(=O)c2cc3c(s2)OC[C@]32NCCc3ccccc32)C[C@@H]1O` [Compound 141] the figure was 50 to 200 nM; with `NS(=O)(=O)OC[C@H]1[C@H](F)[C@@H](Nc2ncncc2C(=O)c2cc3c(s2)OCC32NCCc3ccc(F)cc32)C[C@@H]1O` (some centres unmarked) [Compound 142], over 200 nM; with `NS(=O)(=O)OC[C@H]1[C@H](F)[C@@H](Nc2ncncc2C(=O)c2cc3c(s2)OC[C@@]32NCCc3ccc(F)cc32)C[C@@H]1O` [Compound 143], over 200 nM.
Same read-out and setting: in the case of `NS(=O)(=O)OC[C@H]1[C@H](F)[C@@H](Nc2ncncc2C(=O)c2cc3c(s2)OC[C@]32NCCc3ccc(F)cc32)C[C@@H]1O` [Compound 144] it was 50 to 200 nM.
In the case of `NS(=O)(=O)OC[C@H]1[C@H](F)[C@@H](Nc2ncncc2C(=O)c2cc3c(s2)OCC32NCCc3ccc(Cl)cc32)C[C@@H]1O` (some centres unmarked) [Compound 145], the IC50 (class symbols) was 50 to 200 nM.
Compound `NS(=O)(=O)OC[C@H]1[C@H](F)[C@@H](Nc2ncncc2C(=O)c2cc3c(s2)OC[C@@]32NCCc3ccc(Cl)cc32)C[C@@H]1O` [Compound 146] gave an IC50 (class symbols) of over 200 nM.
For the setting “class symbols”, `NS(=O)(=O)OC[C@H]1[C@H](F)[C@@H](Nc2ncncc2C(=O)c2cc3c(s2)OC[C@]32NCCc3ccc(Cl)cc32)C[C@@H]1O` [Compound 147] returned an IC50 of 50 to 200 nM.
Still for that read-out and setting: in the case of `Cc1ccc2c(c1)C1(CCc3sc(C(=O)c4cncnc4N[C@H]4C[C@H](O)[C@@H](COS(N)(=O)=O)[C@@H]4F)cc31)NCC2` (some centres unmarked) [Compound 148] it was 50 to 200 nM.
Still for that read-out and setting: with `NS(=O)(=O)OC[C@H]1[C@H](F)[C@@H](Nc2ncncc2C(=O)c2cc3c(s2)CCC32NCCc3ccc(C4CC4)cc32)C[C@@H]1O` (some centres unmarked) [Compound 149] the figure was 50 to 200 nM.
For the compound `COc1ccc2c(c1)C1(CCc3sc(C(=O)c4cncnc4N[C@H]4C[C@H](O)[C@@H](COS(N)(=O)=O)[C@@H]4F)cc31)NCC2` (some centres unmarked) [Compound 150], for the setting “class symbols”, the IC50 was over 200 nM.
On the same count and under the same terms, with `NS(=O)(=O)OC[C@H]1[C@H](F)[C@@H](Nc2ncncc2C(=O)c2cc3c(s2)CCC32NCCc3ccc(C(F)(F)F)cc32)C[C@@H]1O` (some centres unmarked) [Compound 151] the figure was 50 to 200 nM; with `NS(=O)(=O)OC[C@H]1[C@H](F)[C@@H](Nc2ncncc2C(=O)c2cc3c(s2)CCC32NCCc3cc(F)c(F)cc32)C[C@@H]1O` (some centres unmarked) [Compound 152], 50 to 200 nM.
Same read-out and setting: in the case of `NS(=O)(=O)OC[C@H]1[C@H](F)[C@@H](Nc2ncncc2C(=O)c2cc3c(s2)CCC32NCCc3cc(F)c(Cl)cc32)C[C@@H]1O` (some centres unmarked) [Compound 153] it was at most 50 nM; in that of `NS(=O)(=O)OC[C@H]1[C@H](F)[C@@H](Nc2ncncc2C(=O)c2cc3c(s2)CCC32NCCc3cc(Cl)c(Cl)cc32)C[C@@H]1O` (some centres unmarked) [Compound 154], 50 to 200 nM; in that of `Cc1cc2c(cc1Cl)C1(CCc3sc(C(=O)c4cncnc4N[C@H]4C[C@H](O)[C@@H](COS(N)(=O)=O)[C@@H]4F)cc31)NCC2` (some centres unmarked) [Compound 155], 50 to 200 nM.
Same read-out and setting: with `N#Cc1cc2c(cc1Cl)C1(CCc3sc(C(=O)c4cncnc4N[C@H]4C[C@H](O)[C@@H](COS(N)(=O)=O)[C@@H]4F)cc31)NCC2` (some centres unmarked) [Compound 156] the figure was 50 to 200 nM; with `COc1cc2c(cc1Cl)C1(CCc3sc(C(=O)c4cncnc4N[C@H]4C[C@H](O)[C@@H](COS(N)(=O)=O)[C@@H]4F)cc31)NCC2` (some centres unmarked) [Compound 157], 50 to 200 nM; with `NS(=O)(=O)OC[C@H]1[C@H](F)[C@@H](Nc2ncncc2C(=O)c2cc3c(s2)CCC32NCCc3cc(F)c(Cl)c(F)c32)C[C@@H]1O` (some centres unmarked) [Compound 158], 50 to 200 nM.
The compound `NS(=O)(=O)OC[C@H]1[C@H](F)[C@@H](Nc2ncncc2C(=O)c2cc3c(s2)CCC32NCCc3cc(Cl)c(F)cc32)C[C@@H]1O` (some centres unmarked) [Compound 159] showed an IC50 (class symbols) of 50 to 200 nM.
Take `NS(=O)(=O)OC[C@H]1[C@H](F)[C@@H](Nc2ncncc2C(=O)c2cc3c(s2)CCC32NCCc3ccncc32)C[C@@H]1O` (some centres unmarked) [Compound 160]: where the note is “class symbols”, the IC50 lay within 50 to 200 nM.
Same read-out and setting: in the case of `NS(=O)(=O)OC[C@H]1[C@H](F)[C@@H](Nc2ncncc2C(=O)c2cc3c(s2)CCC32NCCc3cc(Cl)ncc32)C[C@@H]1O` (some centres unmarked) [Compound 161] it was 50 to 200 nM; in that of `NS(=O)(=O)OC[C@H]1[C@H](F)[C@@H](Nc2ncncc2C(=O)c2cc3c(s2)C=CC32NCCc3ccc(Cl)cc32)C[C@@H]1O` (some centres unmarked) [Compound 162], at most 50 nM; in that of `NS(=O)(=O)OC[C@H]1[C@H](F)[C@@H](Nc2ncncc2C(=O)c2cc3c(s2)C=CC32NCCc3ccc(F)cc32)C[C@@H]1O` (some centres unmarked) [Compound 163], 50 to 200 nM.
